Data taken from article PMC9919951, “Ellagic Acid and Its Metabolites as Potent and Selective Allosteric Inhibitors of Liver Pyruvate Kinase” (Nutrients, 2023).
Entries after “also recorded” stand apart in the source; their conditions may differ.

Key:
PKL = molecular target: T1, PKL (Homo sapiens, UniProt P30613); test: In vitro pyruvate kinase assay (Kinase-Glo Max luminescence), PKL; assay type: biochemical; settings: for PKL IC50: 0.1 mM ADP, 0.125 mM PEP, rt 30 min, Inactive = less than 30% inhibition at 10 µM; for Change of PKL inhibitory activity relative to Uro D (5): removal of one hydroxyl group from 5
T1 construct: purchased BPS Bioscience
Source text: (§1) In the absence of the compound, the intensity (Ce) in each data set was defined as 100% activity.

PKM2 = PKM2 (Homo sapiens, UniProt P14618); test: In vitro pyruvate kinase assay, PKM2; assay type: biochemical; settings: printed in the PKM2 IC50 column; footnote a: value refers to EC50; read-out: PKM2 EC50 (compound behaves as an activator)
Source text: as §1

PKM1 = PKM1 (Homo sapiens, UniProt P14618); test: In vitro pyruvate kinase assay, PKM1; assay type: biochemical
Source text: as §1

PKR = molecular target: T2, PKR (Homo sapiens, UniProt P30613); test: In vitro pyruvate kinase assay (Kinase-Glo Max luminescence), PKR; assay type: biochemical; settings: for PKR IC50: 0.1 mM ADP, 0.125 mM PEP, rt 30 min, Inactive = less than 30% inhibition at 10 µM
T2 construct: purchased BPS Bioscience
Source text: as §1

T1 sequence (P30613 1-543 isoform P30613-2): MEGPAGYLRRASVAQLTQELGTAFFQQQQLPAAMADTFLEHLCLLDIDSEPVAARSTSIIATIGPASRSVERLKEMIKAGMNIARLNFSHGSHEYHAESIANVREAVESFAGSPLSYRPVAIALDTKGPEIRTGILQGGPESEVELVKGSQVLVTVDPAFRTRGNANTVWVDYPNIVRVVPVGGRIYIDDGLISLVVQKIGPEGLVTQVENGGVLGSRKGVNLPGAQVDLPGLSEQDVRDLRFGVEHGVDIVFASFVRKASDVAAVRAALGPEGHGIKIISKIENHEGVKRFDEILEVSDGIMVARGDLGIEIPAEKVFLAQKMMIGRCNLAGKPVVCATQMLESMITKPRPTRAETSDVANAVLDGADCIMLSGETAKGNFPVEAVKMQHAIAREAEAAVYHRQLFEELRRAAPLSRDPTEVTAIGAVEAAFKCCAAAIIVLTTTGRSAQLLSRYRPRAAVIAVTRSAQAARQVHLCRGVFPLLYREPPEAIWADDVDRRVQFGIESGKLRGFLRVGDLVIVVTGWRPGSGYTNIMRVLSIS
T2 sequence (P30613 whole entry): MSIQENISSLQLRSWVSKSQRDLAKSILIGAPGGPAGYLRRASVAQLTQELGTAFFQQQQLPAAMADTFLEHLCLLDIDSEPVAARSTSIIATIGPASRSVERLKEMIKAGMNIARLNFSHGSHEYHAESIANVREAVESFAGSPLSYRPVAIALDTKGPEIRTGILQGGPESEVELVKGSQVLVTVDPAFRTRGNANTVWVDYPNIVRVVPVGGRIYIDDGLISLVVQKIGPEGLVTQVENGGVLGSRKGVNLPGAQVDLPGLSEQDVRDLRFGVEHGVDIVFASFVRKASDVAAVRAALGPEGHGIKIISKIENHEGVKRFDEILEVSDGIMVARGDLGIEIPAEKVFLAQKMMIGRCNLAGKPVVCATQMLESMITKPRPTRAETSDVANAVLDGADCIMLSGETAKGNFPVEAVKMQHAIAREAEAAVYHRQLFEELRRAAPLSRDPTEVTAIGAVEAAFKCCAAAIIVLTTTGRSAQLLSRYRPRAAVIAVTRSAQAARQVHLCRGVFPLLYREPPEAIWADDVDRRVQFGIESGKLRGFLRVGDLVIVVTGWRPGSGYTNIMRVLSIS
Chain of PKM2 (P14618 whole entry): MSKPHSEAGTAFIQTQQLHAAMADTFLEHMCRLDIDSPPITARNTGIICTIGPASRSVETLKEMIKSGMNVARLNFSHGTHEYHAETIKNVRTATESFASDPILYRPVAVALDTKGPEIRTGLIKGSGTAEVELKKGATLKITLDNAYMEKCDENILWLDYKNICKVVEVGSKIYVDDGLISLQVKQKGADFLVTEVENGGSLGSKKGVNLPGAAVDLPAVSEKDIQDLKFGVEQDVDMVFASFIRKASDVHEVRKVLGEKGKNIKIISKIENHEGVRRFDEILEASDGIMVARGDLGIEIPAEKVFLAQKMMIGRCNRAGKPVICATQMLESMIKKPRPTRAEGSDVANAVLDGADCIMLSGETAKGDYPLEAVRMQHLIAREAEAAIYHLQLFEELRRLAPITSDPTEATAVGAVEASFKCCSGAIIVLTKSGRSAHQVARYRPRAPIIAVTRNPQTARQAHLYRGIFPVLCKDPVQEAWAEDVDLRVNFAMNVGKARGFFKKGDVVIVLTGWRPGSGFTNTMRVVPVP
Chain of PKM1 (P14618 1-531 isoform P14618-2): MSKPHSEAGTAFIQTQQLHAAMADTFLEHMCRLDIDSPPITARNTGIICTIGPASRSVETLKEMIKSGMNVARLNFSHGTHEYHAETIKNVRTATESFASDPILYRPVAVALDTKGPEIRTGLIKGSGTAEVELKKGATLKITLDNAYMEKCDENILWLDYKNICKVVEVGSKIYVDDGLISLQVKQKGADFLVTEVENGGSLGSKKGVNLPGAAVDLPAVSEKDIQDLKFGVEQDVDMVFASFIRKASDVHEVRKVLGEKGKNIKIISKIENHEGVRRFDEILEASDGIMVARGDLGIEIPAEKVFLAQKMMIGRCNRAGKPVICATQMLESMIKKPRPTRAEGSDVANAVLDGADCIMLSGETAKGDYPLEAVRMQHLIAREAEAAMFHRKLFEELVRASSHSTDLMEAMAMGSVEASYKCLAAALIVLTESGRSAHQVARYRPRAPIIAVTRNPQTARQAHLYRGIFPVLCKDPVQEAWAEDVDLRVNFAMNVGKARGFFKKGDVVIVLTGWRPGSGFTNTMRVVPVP

O=c1oc2c(O)c(O)cc3c(=O)oc4c(O)c(O)cc1c4c23 [Compound 1, ellagic acid]
IC50 (PKL): 32 nM | Mode of PKL inhibition (PKL; different concentrations of ADP, activity independent of substrate concentration): non-competitive allosteric inhibitor | EC50 (PKM2): 70 nM | IC50 (PKM1): 81000 nM | IC50 (PKR): 4700 nM

O=c1cc(-c2ccc(O)c(O)c2)oc2cc(O)cc(O)c12 [Compound 2, luteolin]
IC50 (PKL): 12000 nM | IC50 (PKR): > 100000 nM

Oc1cc(O)c2cc(O)c(-c3ccc(O)c(O)c3)[o+]c2c1 [Compound 3, cyanidin]
IC50 (PKL): 2100 nM | IC50 (PKR): 7400 nM

O=c1oc2c(O)c(O)ccc2c2cc(O)c(O)cc12 [Compound 5, urolithin D]
IC50 (PKL): 28 nM | EC50 (PKM2): 30 nM | IC50 (PKM1): 36000 nM | IC50 (PKR): 1270 nM

O=c1occc2cc(O)c(O)cc12 [Compound 6, 6,7-dihydroxy-1H-isochromen-1-one]
PKL IC50 (PKL): Inactive ^b | melting point: 265 to 267 °C | PKR IC50 (PKR): Inactive ^b

O=c1ccc2ccc(O)c(O)c2o1 [Compound 7]
PKL IC50 (PKL): Inactive ^b | PKR IC50 (PKR): Inactive ^b

Oc1ccc(-c2ccc(O)c(O)c2O)c(O)c1O [Compound 8, [1,1’-Biphenyl]-2,2’,3,3’,4,4’-hexaol]
IC50 (PKL): 3500 nM | melting point: > 350 °C | IC50 (PKR): 12000 nM

Oc1ccc(-c2ccc(O)c(O)c2)cc1O [Compound 9, [1,1’-biphenyl]-3,3’,4,4’-tetraol]
IC50 (PKL): 2400 nM | IC50 (PKR): 5100 nM

O=c1oc2cc(O)ccc2c2cc(O)c(O)cc12 [Compound 10, 3,8,9-trihydroxy-6H-benzo[c]chromen-6-one]
IC50 (PKL): 410 nM | Change of PKL inhibitory activity relative to Uro D (5) (PKL): reduced by approximately one order of magnitude | IC50 (PKR): 2600 nM

O=c1oc2cc(O)ccc2c2ccc(O)cc12 [Compound 11, Urolithin A]
PKL IC50 (PKL): no inhibition was observed; also recorded: Inactive ^b | PKR IC50 (PKR): Inactive ^b

O=c1oc2cc(O)ccc2c2ccccc12 [Compound 12, Urolithin B]
PKL IC50 (PKL): no inhibition was observed; also recorded: Inactive ^b | PKR IC50 (PKR): Inactive ^b

O=c1oc2c(O)cccc2c2cc(O)c(O)cc12 [Compound 13, 4,8,9-Trihydroxy-6H-benzo[c]chromen-6-one]
IC50 (PKL): 3900 nM | Change of PKL inhibitory activity relative to Uro D (5) (PKL): hundred-fold reduction in activity | melting point: 345 to 347 °C | IC50 (PKR): 43000 nM

O=c1oc2c(O)c(O)ccc2c2cc(O)ccc12 [Compound 14, 3,4,9-Trihydroxy-6H-benzo[c]chromen-6-one]
IC50 (PKL): 2100 nM | IC50 (PKR): 68000 nM

O=c1oc2c(O)c(O)ccc2c2ccc(O)cc12 [Compound 15, 3,4,8-Trihydroxy-6H-benzo[c]chromen-6-one]
IC50 (PKL): 1700 nM | Change of PKL inhibitory activity relative to Uro D (5) (PKL): dramatically reduced inhibitory activity | IC50 (PKR): > 100000 nM

O=C(COP(=O)(O)O)[C@@H](O)[C@H](O)[C@H](O)COP(=O)(O)O [FBP, Fructose-1,6-biphosphate, reference compound]
EC50 (PKL; printed in the PKL IC50 column, footnote a: value refers to EC50, read-out: PKL EC50 (compound behaves as an activator)): 20 nM | EC50 (PKM2): 50 nM | PKM1 IC50 (PKM1): Inactive | EC50 (PKR; printed in the PKR IC50 column, footnote a: value refers to EC50, read-out: PKR EC50 (compound behaves as an activator)): 10 nM
